Assay results published in BindingDB's records for doi:10.1073/pnas.95.18.10836 (Merck Research Laboratories, 1998).

Legend:
[1] = target: Somatostatin receptor type 5 (Homo sapiens, UniProt P35346)
[2] = target: Somatostatin receptor type 3 (Homo sapiens, UniProt P32745)
[3] = target: Somatostatin receptor type 4 (Homo sapiens, UniProt P31391)
[4] = target: Somatostatin receptor type 2 (Homo sapiens, UniProt P30874)
[5] = target: Somatostatin receptor type 1 (Homo sapiens, UniProt P30872)
Sequence of Somatostatin receptor type 1 (P30872 whole entry): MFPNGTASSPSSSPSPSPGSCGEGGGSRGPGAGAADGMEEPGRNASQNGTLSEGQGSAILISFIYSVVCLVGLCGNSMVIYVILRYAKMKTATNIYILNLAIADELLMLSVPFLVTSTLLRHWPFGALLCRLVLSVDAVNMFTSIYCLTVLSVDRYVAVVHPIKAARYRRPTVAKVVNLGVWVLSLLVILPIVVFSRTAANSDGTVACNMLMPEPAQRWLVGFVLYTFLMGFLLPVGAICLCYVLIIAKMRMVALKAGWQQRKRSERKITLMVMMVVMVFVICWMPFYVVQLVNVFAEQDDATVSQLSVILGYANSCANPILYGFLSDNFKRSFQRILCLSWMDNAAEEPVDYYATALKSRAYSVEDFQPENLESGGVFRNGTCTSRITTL

Sequence of Somatostatin receptor type 5 (P35346 whole entry): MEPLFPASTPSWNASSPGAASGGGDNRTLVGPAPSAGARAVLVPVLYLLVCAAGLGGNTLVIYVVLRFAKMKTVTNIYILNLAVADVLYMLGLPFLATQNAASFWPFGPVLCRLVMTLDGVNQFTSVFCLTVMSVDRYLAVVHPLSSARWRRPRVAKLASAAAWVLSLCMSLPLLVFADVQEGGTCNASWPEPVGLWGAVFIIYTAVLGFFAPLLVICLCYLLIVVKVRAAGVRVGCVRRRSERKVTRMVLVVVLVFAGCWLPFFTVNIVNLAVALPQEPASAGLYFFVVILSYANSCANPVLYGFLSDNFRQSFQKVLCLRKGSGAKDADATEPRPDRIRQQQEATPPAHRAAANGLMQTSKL
Sequence of Somatostatin receptor type 3 (P32745 whole entry): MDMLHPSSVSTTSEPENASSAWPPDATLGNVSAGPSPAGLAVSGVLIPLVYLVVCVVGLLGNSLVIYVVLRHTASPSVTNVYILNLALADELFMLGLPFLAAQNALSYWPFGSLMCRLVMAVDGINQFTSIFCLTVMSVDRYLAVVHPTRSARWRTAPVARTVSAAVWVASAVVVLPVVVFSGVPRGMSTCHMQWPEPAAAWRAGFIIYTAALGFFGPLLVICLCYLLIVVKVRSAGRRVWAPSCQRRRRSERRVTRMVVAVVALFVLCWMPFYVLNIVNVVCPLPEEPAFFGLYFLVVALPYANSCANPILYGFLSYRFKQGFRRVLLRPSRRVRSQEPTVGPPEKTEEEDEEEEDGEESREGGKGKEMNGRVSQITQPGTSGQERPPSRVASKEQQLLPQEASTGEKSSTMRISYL
Sequence of Somatostatin receptor type 2 (P30874 whole entry): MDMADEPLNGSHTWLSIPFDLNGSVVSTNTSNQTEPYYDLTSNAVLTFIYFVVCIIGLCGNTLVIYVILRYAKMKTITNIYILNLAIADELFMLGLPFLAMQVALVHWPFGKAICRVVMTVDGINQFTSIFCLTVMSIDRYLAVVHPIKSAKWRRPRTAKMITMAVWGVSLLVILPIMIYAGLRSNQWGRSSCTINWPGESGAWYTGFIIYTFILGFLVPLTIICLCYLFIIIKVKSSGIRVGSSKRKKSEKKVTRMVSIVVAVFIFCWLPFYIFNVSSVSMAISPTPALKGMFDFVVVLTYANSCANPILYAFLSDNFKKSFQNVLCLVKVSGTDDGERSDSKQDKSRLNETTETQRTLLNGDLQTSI
Sequence of Somatostatin receptor type 4 (P31391 whole entry): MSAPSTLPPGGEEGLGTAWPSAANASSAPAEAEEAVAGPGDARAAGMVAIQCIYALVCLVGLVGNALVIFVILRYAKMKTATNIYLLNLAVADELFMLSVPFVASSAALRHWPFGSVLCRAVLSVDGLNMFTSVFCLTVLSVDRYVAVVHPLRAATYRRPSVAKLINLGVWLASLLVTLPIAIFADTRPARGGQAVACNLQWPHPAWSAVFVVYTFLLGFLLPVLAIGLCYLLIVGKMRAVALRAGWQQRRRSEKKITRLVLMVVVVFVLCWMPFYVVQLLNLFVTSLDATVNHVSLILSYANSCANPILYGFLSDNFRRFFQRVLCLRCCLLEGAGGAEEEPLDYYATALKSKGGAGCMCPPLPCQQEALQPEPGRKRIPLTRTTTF

Work on C[C@@H](c1c[nH]c2ccccc12)[C@@H](NC(=O)N1CCC(n2c(=O)[nH]c3ccccc32)CC1)C(=O)NC(CCCCN)C(=O)OC(C)(C)C (stereo partly drawn) [2-[[(2R,3S)-2-[[4-[(2-Oxo-2,3-dihydro-1H-benzimidazole)-1-yl]piperidino]carbonylamino]-3-(1H-indole-3-yl)butyryl]amino]-6-aminohexanoic acid tert-butyl ester] yielded a Ki [1] of 163 nM, a Ki [2] of 31 nM and a Ki [3] of 81 nM. The Ki [4] was 0.01 nM.

With CC(O)[C@H]1NC(=O)[C@@H](Cc2ccccc2)NC(=O)[C@H]2CCCN2C(=O)[C@H](Cc2ccc(O)cc2)NC(=O)[C@@H](Cc2c[nH]c3ccccc23)NC(=O)[C@@H](CCCCN)NC1=O (stereo partly drawn) [(5S,8R,11R,14R,17R,19aR)-11-(4-Amino-butyl)-17-benzyl-5-(4-hydroxy-benzyl)-14-(1-hydroxy-ethyl)-8-(1H-indol-3-ylmethyl)-tetradecahydro-3a,6,9,12,15,18-hexaaza-cyclopentacyclooctadecene-4,7,10,13,16,19-hexaone] the Ki [1] was 2010 nM, the Ki [2] was 3070 nM and the Ki [5] was 5660 nM. The Ki [3] was > 10000 nM and the Ki [4] was 0.49 nM.

For CC(C)[C@@H]1NC(=O)[C@H](CCCCN)NC(=O)[C@@H](Cc2c[nH]c3ccccc23)NC(=O)[C@H](Cc2ccc(O)cc2)NC(=O)[C@H](C)N(C)C(=O)[C@H](Cc2ccccc2)NC1=O [CAS_3086456], the Ki [1] was 232 nM, the Ki [2] was 230 nM and the Ki [5] was > 10000 nM.
